Molecules are shown by their SMILES.

Holding throughout (type): biochemical
One experiment has as its target T1, HsSNF2L (Homo sapiens, UniProt P28370).
T1 construct: gene SMARCA1; 6xHis tag, baculovirus, Sf21 insect cells
Kind of experiment: […]-gamma-ATP hydrolysis, thin-layer chromatography. Conditions: 500 µM ATP, 1.5 mM MgCl2, pH 7.6, 30 °C, with or without mononucleosomes.

Experiment [1] concerns the target T2, PfSnf2L (Plasmodium falciparum, UniProt Q8IIW0).
T2 construct: gene PF3D7_1104200; amino acids 250-1426, C-terminal 10xHis tag, baculovirus, Sf21 insect cells
T2 sequence (Q8IIW0 250-1426): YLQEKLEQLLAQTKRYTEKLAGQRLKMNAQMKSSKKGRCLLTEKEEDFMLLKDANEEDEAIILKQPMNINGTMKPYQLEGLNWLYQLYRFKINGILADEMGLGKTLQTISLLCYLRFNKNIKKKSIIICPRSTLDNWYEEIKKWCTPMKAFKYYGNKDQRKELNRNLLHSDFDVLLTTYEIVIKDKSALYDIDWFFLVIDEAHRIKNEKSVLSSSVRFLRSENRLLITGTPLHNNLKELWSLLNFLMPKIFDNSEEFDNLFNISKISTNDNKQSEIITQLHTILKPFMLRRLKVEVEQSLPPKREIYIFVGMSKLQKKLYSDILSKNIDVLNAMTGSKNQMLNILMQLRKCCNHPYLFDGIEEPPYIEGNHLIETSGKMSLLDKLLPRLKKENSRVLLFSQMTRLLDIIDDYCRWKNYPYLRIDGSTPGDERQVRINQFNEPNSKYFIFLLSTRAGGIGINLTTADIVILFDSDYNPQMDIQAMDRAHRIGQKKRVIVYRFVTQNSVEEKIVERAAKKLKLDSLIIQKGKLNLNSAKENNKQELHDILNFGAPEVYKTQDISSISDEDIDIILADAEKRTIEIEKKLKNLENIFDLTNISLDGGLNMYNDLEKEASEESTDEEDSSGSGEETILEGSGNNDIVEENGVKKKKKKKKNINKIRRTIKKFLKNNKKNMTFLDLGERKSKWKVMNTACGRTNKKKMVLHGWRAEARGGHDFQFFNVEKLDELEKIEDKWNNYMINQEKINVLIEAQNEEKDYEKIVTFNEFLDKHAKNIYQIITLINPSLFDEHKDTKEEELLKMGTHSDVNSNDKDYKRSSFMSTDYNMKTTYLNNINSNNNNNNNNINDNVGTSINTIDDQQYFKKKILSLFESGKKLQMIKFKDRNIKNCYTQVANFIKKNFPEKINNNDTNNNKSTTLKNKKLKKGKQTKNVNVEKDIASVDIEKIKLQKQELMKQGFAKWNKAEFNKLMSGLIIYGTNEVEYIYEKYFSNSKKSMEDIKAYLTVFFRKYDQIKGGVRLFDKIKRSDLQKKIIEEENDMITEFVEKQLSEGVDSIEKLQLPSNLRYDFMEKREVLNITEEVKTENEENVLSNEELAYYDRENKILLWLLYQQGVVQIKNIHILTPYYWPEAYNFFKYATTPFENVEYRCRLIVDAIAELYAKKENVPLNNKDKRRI
The experiment is described as above. Conditions: 500 µM ATP, 1.5 mM MgCl2, pH 7.6, 30 °C, with or without mononucleosomes.

Experiment [2] has as its target T2, PfSnf2L. Description: ADP biosensor (TMR-ParM) ATPase assay, single dose response. Conditions: 0.4 µM enzyme, 125 µM ATP, plasmid DNA, 5 µM H4 peptide, 1.5 mM MgCl2, pH 8.6, 28 °C; allosteric.

T1 sequence (P28370 whole entry): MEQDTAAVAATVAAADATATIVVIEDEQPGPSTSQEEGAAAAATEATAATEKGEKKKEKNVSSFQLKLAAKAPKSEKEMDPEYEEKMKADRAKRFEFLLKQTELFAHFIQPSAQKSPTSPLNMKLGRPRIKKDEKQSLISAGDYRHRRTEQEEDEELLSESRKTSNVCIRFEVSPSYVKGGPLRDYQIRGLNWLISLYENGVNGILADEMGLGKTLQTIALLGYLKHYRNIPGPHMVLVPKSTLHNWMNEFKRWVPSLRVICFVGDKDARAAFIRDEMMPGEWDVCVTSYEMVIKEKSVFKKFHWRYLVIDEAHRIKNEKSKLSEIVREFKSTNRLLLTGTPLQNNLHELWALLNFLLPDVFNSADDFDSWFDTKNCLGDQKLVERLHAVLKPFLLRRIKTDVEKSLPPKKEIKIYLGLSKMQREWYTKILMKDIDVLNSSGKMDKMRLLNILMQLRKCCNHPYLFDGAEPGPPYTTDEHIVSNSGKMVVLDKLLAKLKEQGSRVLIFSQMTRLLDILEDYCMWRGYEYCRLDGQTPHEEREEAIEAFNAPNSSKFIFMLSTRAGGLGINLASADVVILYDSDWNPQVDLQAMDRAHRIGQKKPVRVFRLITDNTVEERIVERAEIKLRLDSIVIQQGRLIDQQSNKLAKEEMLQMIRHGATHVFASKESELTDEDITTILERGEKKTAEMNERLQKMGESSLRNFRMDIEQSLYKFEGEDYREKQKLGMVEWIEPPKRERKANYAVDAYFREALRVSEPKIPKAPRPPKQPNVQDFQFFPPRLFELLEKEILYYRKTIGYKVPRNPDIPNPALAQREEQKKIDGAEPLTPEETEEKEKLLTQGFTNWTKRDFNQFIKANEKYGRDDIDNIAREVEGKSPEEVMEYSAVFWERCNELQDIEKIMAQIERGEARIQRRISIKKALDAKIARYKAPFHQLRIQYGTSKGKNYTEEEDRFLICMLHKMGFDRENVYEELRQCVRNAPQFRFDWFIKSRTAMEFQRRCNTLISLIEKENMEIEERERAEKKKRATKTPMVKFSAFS

As to `Nc1ncnc2c1ncn2[C@@H]1O[C@H](COP(=O)(O)OP(=O)(O)OP(=O)(O)O)[C@@H](O)[C@H]1O` [ATP], the “32P-gamma-ATP hydrolysis, thin-layer chromatography” value on HsSNF2L and on PfSnf2L [1] was “The non-stimulated or nucleosome-stimulated ATP hydrolysis rate of PfSnf2L/HsSNF2L” each time.
As to `CCCCCCCCCCCCCCCC[n+]1ccn(Cc2ccccc2)c1C` [NH125], the “ADP biosensor (TMR-ParM) ATPase assay, single dose response” value on PfSnf2L [2] was “ATP hydrolysis kinetic of PfSnf2L in presence of NH125 in varying concentrations”.

Source of the values: article PMC11946908, “Plasmodium blood stage development requires the chromatin remodeller Snf2L” (Nature, 2025).
